This is an account of results in patent publication US9758537B2 (Achillion Pharmaceuticals, Inc., priority 2014, dated 2017).

For the test, the target named is Human factor D (Homo sapiens (Human), UniProt P00746). Put plainly: Human Factor D Assay. It counts as biochemical. The following applies: human factor D 80 nM, substrate Z-L-Lys-SBzl, DTNB, OD405. On the procedure: Human factor D (purified from human serum, Complement Technology, Inc.) at 80 nM final concentration is incubated with test compound at various concentrations for 5 minutes at room temperature in 50 mM Tris, 1M NaCl, pH 7.5. A synthetic substrate Z-L-Lys-SBzl and DTNB (Ellman's reagent) are added to final concentrations of 10 μM each. The increase in color is recorded at OD405 nm in a microplate in kinetic mode over 30 minutes with 30 second time points in a […]. IC50 values are calculated by non-linear regression from the percentage of inhibition of complement factor D activity as a function of test compound concentration.
Human factor D, sequence (P00746 26-253): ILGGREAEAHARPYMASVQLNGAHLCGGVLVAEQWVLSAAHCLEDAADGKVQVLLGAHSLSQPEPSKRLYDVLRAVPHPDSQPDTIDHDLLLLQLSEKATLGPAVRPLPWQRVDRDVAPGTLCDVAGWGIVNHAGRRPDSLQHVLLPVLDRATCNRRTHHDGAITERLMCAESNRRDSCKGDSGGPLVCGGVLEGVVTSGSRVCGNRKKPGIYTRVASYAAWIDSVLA
`CC(=O)c1cn(CC(=O)N2[C@H](C(=O)NCc3cccc(Cl)c3F)C[C@@H]3CCCC[C@@H]32)c2ccccc12` [Compound 1, (2S,3aS,7aS)-1-(2-(3-acetyl-1H-indol-1-yl)acetyl)-N-(3-chloro-2-fluorobenzyl)octahydro-1H-indole-2-carboxamide] displayed an IC50 of under 1 µM.

`CC(=O)n1cc(NC(=O)[C@@H]2C[C@@H](F)CN2C(=O)NCc2cccc(Cl)c2F)c2ccccc21` [Compound 3, (2S,4R)-N2-(1-acetyl-1H-indol-3-yl)-N1-(3-chloro-2-fluorobenzyl)-4-fluoropyrrolidine-1,2-dicarboxamide]: the 50% inhibitory concentration (IC50) was over 10 µM.

Molecule `CC(=O)n1cc(NC(=O)[C@@H]2C[C@H](F)CN2C(=O)NCc2cccc(Cl)c2F)c2ccccc21` [Compound 4, (2S,4S)-N2-(1-acetyl-1H-indol-3-yl)-N1-(3-chloro-2-fluorobenzyl)-4-fluoropyrrolidine-1,2-dicarboxamide] gave an IC50 of over 10 µM.

Consider `CC(=O)n1cc(NC(=O)[C@@H]2C[C@H](F)CN2C(=O)NCc2ccccc2)c2ccccc21` [Compound 5, (2S,4S)-N2-(1-acetyl-1H-indol-3-yl)-N1-benzyl-4-fluoropyrrolidine-1,2-dicarboxamide], for which the half-maximal inhibitory concentration (IC50) is over 10 µM.

In turn, `NC(=O)n1cc(NC(=O)N2C[C@H](F)C[C@H]2C(=O)NS(=O)(=O)c2cccc(Cl)c2F)c2ccccc21` [Compound 6, (2S,4R)-N1-(1-carbamoyl-1H-indol-3-yl)-N2-(3-chloro-2-fluorophenylsulfonyl)-4-fluoropyrrolidine-1,2-dicarboxamide] came in with an IC50 of over 10 µM.

Molecule `CC(=O)n1cc(NC(=O)N2C[C@H](F)C[C@H]2C(=O)NS(=O)(=O)c2cccc(Cl)c2F)c2ccccc21` [Compound 7, (2S,4R)-N1-(1-acetyl-1H-indol-3-yl)-N2-(3-chloro-2-fluorophenylsulfonyl) - 4-fluoropyrrolidine-1,2-dicarboxamide] yielded an IC50 of over 10 µM.

Regarding `CC(=O)n1cc(NC(=O)[C@H]2CC(F)(F)CN2C(=O)NCc2cccc(Cl)c2F)c2ccccc21` [Compound 8, (R)-N2-(1-acetyl-1H-indol-3-yl)-N1-(3-chloro-2-fluorobenzyl)-4,4-difluoropyrrolidine-1,2-dicarboxamide], the IC50 is over 10 µM.

`CC(=O)n1cc(NC(=O)[C@H]2CCCN2C(=O)NCc2cccc(Cl)c2F)c2ccccc21` [Compound 9, (R)-N2-(1-acetyl-1H-indol-3-yl)-N1-(3-chloro-2-fluorobenzyl) pyrrolidine-1,2-dicarboxamide] registered an IC50 of over 10 µM.

`CC(=O)c1cn(CC(=O)N2C[C@H](F)C[C@H]2c2ncc(-c3cccc(Cl)c3)[nH]2)c2ccccc12` [Compound 11, 2-(3-acetyl-1H-indol-1-yl)-1-((2S,4R)-2-(5-(3-chlorophenyl)-1H-imidazol-2-yl)-4-fluoropyrrolidin-1-yl)ethanone] displayed an IC50 of over 10 µM.

Regarding `CC(=O)c1cn(CC(=O)N2C[C@H](F)C[C@H]2c2nc3cc(Cl)ccc3[nH]2)c2ccccc12` [Compound 15, 2-(3-acetyl-1H-indol-1-yl)-1-((2S,4R)-2-(5-chloro-1H-benzo[d]imidazol-2-yl)-4-fluoropyrrolidin-1-yl)ethanone], the IC50 is over 10 µM.

Take `CC(=O)n1cc(NC(=O)[C@H]2CCCN2C(=O)Nc2cccc(OC(F)(F)F)c2F)c2ccccc21` [Compound 16, (R)-N2-(1-acetyl-1H-indol-3-yl)-N1-(2-fluoro-3-(trifluoromethoxy)phenyl)pyrrolidine-1,2-dicarboxamide]: the IC50 is over 10 µM.

The molecule `CC(=O)n1cc(NC(=O)[C@H]2CC(F)(F)CN2C(=O)Cc2cccc(Cl)c2F)c2ccccc21` [Compound 17, (R)-N-(1-acetyl-1H-indol-3-yl)-1-(2-(3-chloro-2-fluorophenyl)acetyl)-4,4-difluoropyrrolidine-2-carboxamide] yielded a concentration for half-maximal inhibition (IC50) of over 10 µM.

In the case of `CC(=O)c1cn(CC(=O)N2CC[C@@H](OCC3CC3)[C@H]2C(=O)NCc2cccc(Cl)c2F)c2ccccc12` [Compound 18, (2S,3R)-1-(2-(3-acetyl-1H-indol-1-yl)acetyl)-N-(3-chloro-2-fluorobenzyl)-3-(cyclopropylmethoxy) pyrrolidine-2-carboxamide], the half-maximal inhibitory concentration (IC50) was under 1 µM.

In turn, `COc1ccc2c(O[C@@H]3C[C@@H](C(=O)NCc4cccc(Cl)c4F)N(C(=O)Nc4cn(C(C)=O)c5ccccc45)C3)cc(-c3ccccc3)nc2c1` [Compound 19, (2S,4R)-N1-(1-acetyl-1H-indol-3-yl)-N2-(3-chloro-2-fluorobenzyl)-4-(7-methoxy-2-phenylquinolin-4-yloxy)pyrrolidine-1,2-dicarboxamide] had an IC50 of over 10 µM.

Take `CC(=O)n1cc(NC(=O)Nc2cn(C(C)=O)c3ccccc23)c2ccccc21` [Compound 20, 1,3-bis(1-acetyl-1H-indol-3-yl)urea]: the IC50 is over 10 µM.

Take `CC(=O)c1cn(CC(=O)N2C[C@H](F)[C@@H](OCC3CC3)[C@H]2C(=O)NCc2cccc(Cl)c2F)c2cc(O)ccc12` [Compound 21, (2S,3S,4S)-1-(2-(3-acetyl-6-hydroxy-1H-indol-1-yl)acetyl)-N-(3-chloro-2-fluorobenzyl)-3-(cyclopropylmethoxy)-4-fluoropyrrolidine-2-carboxamide]: the IC50 is under 1 µM.

`O=C(c1cn(CC(=O)N2[C@@H]3C[C@@H]3C[C@H]2C(=O)NCc2cccc(Cl)c2F)c2ccccc12)C1CC1` [Compound 22, (1R,3S,5R)-N-(3-chloro-2-fluorobenzyl)-2-(2-(3-(cyclopropanecarbonyl)-1H-indol-1-yl)acetyl)-2-azabicyclo[3.1.0]hexane-3-carboxamide] gave a 50% inhibitory concentration (IC50) of under 1 µM.

`O=C(c1cn(CC(=O)N2C[C@H](F)C[C@H]2C(=O)NCc2cccc(Cl)c2F)c2ccccc12)C1CC1` [Compound 24, (2S,4R)-N-(3-chloro-2-fluorobenzyl)-1-(2-(3-(cyclopropanecarbonyl)-1H-indol-1-yl)acetyl)-4-fluoropyrrolidine-2-carboxamide] registered a 50% inhibitory concentration (IC50) of under 1 µM.

Regarding `CC(=O)c1cn(CC(=O)N2CC(F)C(OCC3CC3)[C@H]2C(=O)NCc2cccc(Cl)c2F)c2cc(O)ccc12` (stereo partly drawn) [Compound 25, (2S)-1-(2-(3-acetyl-6-hydroxy-1H-indol-1-yl)acetyl)-N-(3-chloro-2-fluorobenzyl)-3-(cyclopropylmethoxy)-4-fluoropyrrolidine-2-carboxamide], the IC50 was under 1 µM.

For the molecule `NC(=O)N1CC(NC(=O)[C@@H]2CCC[C@H]2C(=O)NCc2cccc(Cl)c2F)c2ccccc21` (stereo partly drawn) [Compound 26, (1R,2R)-N1-(1-carbamoylindolin-3-yl)-N2-(3-chloro-2-fluorobenzyl)cyclopentane-1,2-dicarboxamide], the IC50 is over 10 µM.

The molecule `CC(=O)c1cn(CC(=O)N2C[C@H](F)C[C@H]2Cn2cc(-c3ccc(F)cc3)nn2)c2ccccc12` [Compound 27, 2-(3-acetyl-1H-indol-1-yl)-1-((2S,4R)-4-fluoro-2-((4-(4-fluorophenyl)-1H-1,2,3-triazol-1-yl)methyl)pyrrolidin-1-yl)ethanone] had an IC50 of over 10 µM.

Turning to `NC(=O)n1cc(NC(=O)N2C[C@H](F)C[C@H]2Cn2cc(-c3ccc(F)cc3)nn2)c2ccccc21` [Compound 28, 3-((2S,4R)-4-fluoro-2-((4-(4-fluorophenyl)-1H-1,2,3-triazol-1-yl)methyl)pyrrolidine-1-carboxamido)-1H-indole-1-carboxamide], the IC50 is over 10 µM.

As to `COc1ccc2c(O[C@@H]3C[C@@H](C(=O)NCc4cccc(Cl)c4F)N(C(=O)Cn4cc(C(C)=O)c5ccccc54)C3)cc(-c3ccccc3)nc2c1` [Compound 29, (2S,4R)-1-(2-(3-acetyl-1H-indol-1-yl)acetyl)-N-(3-chloro-2-fluorobenzyl)-4-(7-methoxy-2-phenylquinolin-4-yloxy)pyrrolidine-2-carboxamide], the IC50 was over 10 µM.

For the molecule `NC(=O)N1C[C@H](F)C[C@H]1Cn1cc(-c2ccc(F)c(Cl)c2)nn1` [Compound 30, (2S,4R)-2-((4-(3-chloro-4-fluorophenyl)-1H-1,2,3-triazol-1-yl)methyl)-4-fluoropyrrolidine-1-carboxamide], the IC50 is over 10 µM.

Consider `NC(=O)n1cc(NC(=O)C2=C(C(=O)NCc3cccc(Cl)c3F)CCC2)c2ccccc21` [Compound 31, N1-(1-carbamoyl-1H-indol-3-yl)-N2-(3-chloro-2-fluorobenzyl)cyclopent-1-ene-1,2-dicarboxamide], for which the half-inhibitory concentration (IC50) was over 10 µM.

For `CC(=O)c1cn(CC(=O)N2C[C@H](F)C[C@H]2C(=O)N2Cc3ccccc3C2)c2ccccc12` [Compound 33, 2-(3-acetyl-1H-indol-1-yl)-1-((2S,4R)-4-fluoro-2-(isoindoline-2-carbonyl)pyrrolidin-1-yl)ethanone], the IC50 was over 10 µM.

The molecule `CC(=O)c1cn(CC(=O)N2C[C@H](F)C[C@H]2C(=O)N(C)Cc2cccc(Cl)c2F)c2ccccc12` [Compound 34, (2S,4R)-1-(2-(3-acetyl-1H-indol-1-yl)acetyl)-N-(3-chloro-2-fluorobenzyl)-4-fluoro-N-methylpyrrolidine-2-carboxamide] gave an IC50 of over 10 µM.

`CC(=O)c1cn(CC(=O)N2[C@H](C(=O)NCc3cccc(Cl)c3F)C[C@@H]3CCCC[C@@H]32)c2cc(O)ccc12` [Compound 35, (2S,3aS,7aS)-1-(2-(3-acetyl-6-hydroxy-1H-indol-1-yl)acetyl)-N-(3-chloro-2-fluorobenzyl)octahydro-1H-indole-2-carboxamide] displayed an IC50 of under 1 µM.

`N#Cc1cn(CC(=O)N2C[C@H](F)C[C@H]2C(=O)NCc2cccc(Cl)c2F)c2ccccc12` [Compound 36, (2S,4R)-N-(3-chloro-2-fluorobenzyl)-1-(2-(3-cyano-1H-indol-1-yl)acetyl)-4-fluoropyrrolidine-2-carboxamide] had a half-maximal inhibitory concentration (IC50) of under 1 µM.

In general, IC50 refers to the concentration that gives 50% inhibition. The low end stands for inhibition by little substance, the high end for a need for much substance.
